Data reported in PMC6963822, “Phenolic Compounds from the Aerial Parts of Blepharis linariifolia Pers. and Their Free Radical Scavenging and Enzyme Inhibitory Activities” (Medicines, 2019).

Legend:
mushroom tyrosinase [1] = test: Tyrosinase inhibitory activity; assay type: biochemical, Agaricus bisporus; conditions: substrate L-tyrosine, 25 °C, pH 6.8, triplicate; read-out: Enzyme Inhibitory Activities Tyrosinase IC50
Source text: Antioxidants are substances that scavenge free radicals and related reactive species. Free radicals amend vital body composition such as lipids and proteins, resulting in serious conditions such as inflammatory conditions, atherosclerosis, and cancerous diseases. Therefore, dietary antioxidants are undertaken for enhancing health conditions for people under precarious sanitary conditions or to prevent serious and chronic illnesses such as neurodegenerative diseases, diabetes, and hyperlipidemia. Diabetes mellitus (DM) is a metabolic disorder characterized by high blood glucose, which is likely to cause serious side effects such as retinopathy and cataracts. […] Obesity is another example of a metabolic disorder associated with several co-morbidities, with an increasing prevalence every year. Excessive lipid accumulation could be one of the causative factors for type II diabetes, as the accumulation of lipid in the pancreas causes dysfunction of insulin-producing pancreatic β-cells. […] Tyrosinase is a key enzyme in the process of melanin synthesis. It has been isolated and identified from different sources. Among them, mushroom tyrosinase, from Agaricus bisporus, is a major source and is widely used due to its high similarity and homology to human tyrosinase. Despite the important protective role of melanin against UV-sunlight radiation, excess accumulation of this pigment results in harmful skin disorders and severe cases may cause skin cancer. […] (Tokyo, Japan). […] obtained from Combi-Blocks, San Diego, USA, and arbutin was purchased from Nacalai Tesque, Inc. (Kyoto, Japan). 2-Morpholinoethanesulfonic acid monohydrate (MES) was purchased from Dojindo Chemical Research (Kumamoto, Japan). The tyrosinase inhibitory activity was evaluated using the method reported by […] et al., with slight modifications. […] The mixture was incubated at 25 °C for 10 min. Finally, 20 μL of the substrate L-tyrosine (2 mM) were added, and the absorbance was measured at 476 nm. […] Arbutin was used as the positive control. […] All the experiments were performed in triplicate. The data was analyzed using Microsoft Office Excel (2007) and results for DPPH free radical and in vitro enzyme inhibitory activities were expressed as IC50 value (μM).

α-glucosidase [2] = tested on: α-glucosidase; design: method as in PMID 27581205; conditions: cited from earlier work
α-glucosidase [3] = test: α-Glucosidase inhibitory activity; assay type: biochemical, Saccharomyces cerevisiae; conditions: substrate p-nitrophenyl-α-D-glucopyranoside, 37 °C, pH 6.8, triplicate; for IC50: read-out: Enzyme Inhibitory Activities α-Glucosidase IC50
Source text: (§1) 1,1-Diphenyl-2-picrylhydrazyl (DPPH) and the enzymes α-glucosidase (from Saccharomyces cerevisiae), porcine pancreatic lipase, and mushroom tyrosinase were purchased from Sigma Aldrich, Co. (Tokyo, Japan). […] Cetilistat was obtained from Combi-Blocks, San Diego, USA, and arbutin was purchased from Nacalai Tesque, Inc. (Kyoto, Japan). 2-Morpholinoethanesulfonic acid monohydrate (MES) was purchased from Dojindo Chemical Research (Kumamoto, Japan).
The α-glucosidase inhibitory activity was determined according to the method reported by Jabeen et al. with slight modifications. In 96-well plate, 60 μL of 0.2 M phosphate buffer (pH = 6.8), 10 μL of the test sample (final concentration range of 100 to 1.56 μg/mL), and 10 μL of α-glucosidase solution (prepared in phosphate buffer to obtain 1 U/mL) were added. The mixture was incubated at 37 °C for 5 min and 20 μL of 4 mM p-nitrophenyl-α-D-glucopyranoside substrate were added. After 12 min of incubation at 37 °C, the released p-nitrophenol was measured at 405 nm using a spectrophotometer. The percentage inhibition of α-glucosidase activity was calculated using the equation: Inhibition (%) = (1 − (Aa − Ab)/(Ac − Ad)) × 100, in which Aa is the absorbance with test sample and enzyme, Ab is the absorbance with test samples but without enzyme, Ac is the absorbance with enzyme but without test sample, and Ad is the absorbance without test samples and enzymes.
(§2) All the experiments were performed in triplicate. The data was analyzed using Microsoft Office Excel (2007) and results for DPPH free radical and in vitro enzyme inhibitory activities were expressed as IC50 value (μM).

[4] = DPPH free radical scavenging activity; conditions: 20 min, room temperature, absorbance at 520 nm, triplicate
Method: The antioxidant potential was determined using the 1,1- diphenyl-2-picrylhydrazyl (DPPH) radical scavenging method with minor modifications. In a 96-well plate, 25 μL of compound solution of different concentrations were added, followed by the addition of 75 μL of 50% EtOH and 50 μL MES buffer (200 mM, pH = 6.0). Finally, 50 μL of freshly prepared DPPH solution in ethanol (800 μM) were added, and the assay plate was incubated for 20 min in the dark at room temperature. The antioxidant activity corresponding to scavenging of DPPH radicals was measured at 520 nm with UV spectrophotometer using the following formula: Radical scavenging activity (%) = 100 × (A − B)/A, where A is the control absorbance of DPPH radicals without samples and B is the absorbance after reacting with samples. Trolox was used as the positive control.
as §2

[5] = target: T1, porcine pancreatic lipase (Sus scrofa, UniProt P00591); test: Pancreatic lipase inhibitory activity; assay type: biochemical; conditions: substrate 4-methylumbelliferyl oleate, pH 7.4, triplicate; for IC50: read-out: Enzyme Inhibitory Activities Lipase IC50
T1 construct: purchased Sigma Aldrich, Co. (Tokyo, Japan)
T1 sequence (P00591 1-450): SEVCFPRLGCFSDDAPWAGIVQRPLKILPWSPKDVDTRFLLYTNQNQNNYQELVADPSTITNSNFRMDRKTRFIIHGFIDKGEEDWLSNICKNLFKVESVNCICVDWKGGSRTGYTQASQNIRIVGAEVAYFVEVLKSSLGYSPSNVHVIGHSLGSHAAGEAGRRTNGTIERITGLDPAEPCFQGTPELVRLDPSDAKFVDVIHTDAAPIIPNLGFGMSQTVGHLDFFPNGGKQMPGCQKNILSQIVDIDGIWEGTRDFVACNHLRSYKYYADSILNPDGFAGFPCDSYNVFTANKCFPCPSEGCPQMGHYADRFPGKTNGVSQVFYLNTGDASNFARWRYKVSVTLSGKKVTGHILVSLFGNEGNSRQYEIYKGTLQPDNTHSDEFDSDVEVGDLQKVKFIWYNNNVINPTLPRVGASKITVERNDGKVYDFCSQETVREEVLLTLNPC
Source text: as §1
Evaluation of pancreatic lipase inhibitory activity was performed by measuring the release of 4-methylumbelliferone (4MUF) from the substrate 4-methylumbelliferyl oleate (4MUFO) as reported by Bitou et al. with slight modifications. Briefly, 50 μL of the test sample and 50 μL of pancreatic lipase (100 μg/mL in phosphate buffer of 0.2 M, pH 7.4) were mixed and incubated at room temperature for 10 min. Afterward, 100 μL of the substrate 4MUFO (0.5 mM) was added. After 10 min, the fluorescence from the release of 4MUF was measured using a microplate reader with excitation and emission wavelengths of 355 and 460 nm, respectively. Cetilistat was used as the positive control. The percentage of pancreatic lipase inhibitory activity was calculated using the following equation: Inhibition (%) = (1 − (As/Ac) × 100), where As and Ac are the absorbance of sample and control, respectively.
as §2

mushroom tyrosinase [6] = conditions: cited from earlier work

Structure (SMILES)	IC50 (mushroom tyrosinase [1]) [µM]	IC50 (α-glucosidase [3]) [µM]	IC50 [4] [µM]	Enzyme Inhibitory Activities Lipase IC50 [5]	IC50 [5] [µM]	Enzyme Inhibitory Activities α-Glucosidase IC50 (α-glucosidase [3])	mode of α-glucosidase inhibition (α-glucosidase [2])	inhibitory activity for mushroom tyrosinase (mushroom tyrosinase [6])	tyrosinase inhibitory activity (mushroom tyrosinase [6])
OC[C@H]1O[C@@H](Oc2ccc(O)cc2)[C@H](O)[C@@H](O)[C@@H]1O [Arbutin, arbutin, reference compound]	436 ± 3.71	–	–	–	–	–	–	–	–
O=c1cc(-c2ccc(O)cc2)oc2cc(O)cc(O)c12 [Apigenin (3), apigenin]	23.1 ± 1.83	34.7 ± 1.78	386.3 ± 3.42	active	12.5 ± 2.04	–	reversibly inhibit α-glucosidase in a noncompetitive manner	–	–
O=C(/C=C/c1ccc(O)cc1)OC[C@H]1O[C@@H](Oc2cc(O)c3c(c2)OC(c2ccc(O)cc2)CC3=O)[C@H](O)[C@@H](O)[C@@H]1O (some centres unmarked) [6″-O-p-Coumaroylprunin (4), 6″-O-p-coumaroylprunin]	136.1 ± 0.78	46.3 ± 2.92	186.2 ± 1.19	active	2.25 ± 0.17	–	–	–	–
Cc1c(C)c2c(c(C)c1O)CCC(C)(C(=O)O)O2 (centres unmarked) [Trolox, 6-Hydroxy-2,5,7,8-tetramethylchroman-2-carboxylic acid, reference compound]	–	–	39.07 ± 0.31	–	–	–	–	–	–

Further lines, with some results ahead:

IC50 (mushroom tyrosinase [1]) [µM]	IC50 (α-glucosidase [3]) [µM]	IC50 [4] [µM]	Enzyme Inhibitory Activities Lipase IC50 [5]	IC50 [5] [µM]	Enzyme Inhibitory Activities α-Glucosidase IC50 (α-glucosidase [3])	Structure (SMILES)	mode of α-glucosidase inhibition (α-glucosidase [2])	inhibitory activity for mushroom tyrosinase (mushroom tyrosinase [6])	tyrosinase inhibitory activity (mushroom tyrosinase [6])
97.4 ± 2.48	–	22.03 ± 0.04	inactive	–	neither showed inhibitory activities	C[C@@H]1O[C@@H](O[C@@H]2[C@@H](O)[C@H](OCCc3ccc(O)c(O)c3)O[C@H](CO)[C@H]2OC(=O)/C=C/c2ccc(O)c(O)c2)[C@H](O)[C@H](O)[C@H]1O [Verbascoside (1), verbascoside]	–	–	–
–	–	–	–	18.4 ± 1.71	–	CCCCCCCCCCCCCCCCOc1nc2ccc(C)cc2c(=O)o1 [Cetilistat, reference compound]	–	–	–
–	–	217 ± 3.01	inactive	–	neither showed inhibitory activities	COc1cc(C(=O)O)ccc1O [Vanillic acid (2), vanillic acid]	–	did not show any inhibitory activity	weak
